Legend:
[1] = molecular target: T1, Steroid 17-alpha-hydroxylase/17,20 lyase (Homo sapiens, UniProt P05093); experiment: Inhibition of CYP17 in human testicular microsomes using 17alpha-hydroxypregnenolone as substrate assessed as decrease in DHEA levels after 90 mins by ELISA; set-up: species or system Testis
T1 sequence (P05093 whole entry): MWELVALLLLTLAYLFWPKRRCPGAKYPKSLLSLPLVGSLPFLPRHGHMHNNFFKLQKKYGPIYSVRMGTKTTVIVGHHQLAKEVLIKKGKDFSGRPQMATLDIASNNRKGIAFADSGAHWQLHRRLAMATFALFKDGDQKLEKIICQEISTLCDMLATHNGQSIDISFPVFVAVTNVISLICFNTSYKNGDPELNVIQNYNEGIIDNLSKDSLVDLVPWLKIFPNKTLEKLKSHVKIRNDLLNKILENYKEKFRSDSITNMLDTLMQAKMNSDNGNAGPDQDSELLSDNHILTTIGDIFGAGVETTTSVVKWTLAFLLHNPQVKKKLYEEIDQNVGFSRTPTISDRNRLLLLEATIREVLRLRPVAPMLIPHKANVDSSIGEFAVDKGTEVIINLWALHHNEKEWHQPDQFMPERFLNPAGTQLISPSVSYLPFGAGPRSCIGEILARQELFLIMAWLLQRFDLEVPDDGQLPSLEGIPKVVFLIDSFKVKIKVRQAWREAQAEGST

CYP11B = molecular target: T2, CYP11B (Rattus norvegicus, UniProt P15393+P30099); experiment: Inhibition of Sprague-Dawley rat adrenal mitochondrial CYP11B assessed as decrease in conversion of 11-deoxycortisol to cortisol at 100 nM incubated for 60 mins by ELISA relative to control; format: protein assay; conditions: adrenal mitochondria, probe 11-deoxycortisol
T2 sequence (P30099 whole entry): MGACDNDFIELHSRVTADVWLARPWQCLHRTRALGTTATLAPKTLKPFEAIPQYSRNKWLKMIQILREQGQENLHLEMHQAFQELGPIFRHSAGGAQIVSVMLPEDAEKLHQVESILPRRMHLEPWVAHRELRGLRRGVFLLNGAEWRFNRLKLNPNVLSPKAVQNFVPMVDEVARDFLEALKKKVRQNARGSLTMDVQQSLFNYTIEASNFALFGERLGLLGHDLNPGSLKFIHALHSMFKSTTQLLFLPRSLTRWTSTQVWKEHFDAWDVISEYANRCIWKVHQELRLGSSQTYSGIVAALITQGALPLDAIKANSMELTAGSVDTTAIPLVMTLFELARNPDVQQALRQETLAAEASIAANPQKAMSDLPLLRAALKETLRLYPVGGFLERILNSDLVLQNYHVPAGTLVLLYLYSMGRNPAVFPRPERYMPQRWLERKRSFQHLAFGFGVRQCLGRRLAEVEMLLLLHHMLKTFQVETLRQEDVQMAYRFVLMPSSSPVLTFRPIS
T2 sequence (P15393 whole entry): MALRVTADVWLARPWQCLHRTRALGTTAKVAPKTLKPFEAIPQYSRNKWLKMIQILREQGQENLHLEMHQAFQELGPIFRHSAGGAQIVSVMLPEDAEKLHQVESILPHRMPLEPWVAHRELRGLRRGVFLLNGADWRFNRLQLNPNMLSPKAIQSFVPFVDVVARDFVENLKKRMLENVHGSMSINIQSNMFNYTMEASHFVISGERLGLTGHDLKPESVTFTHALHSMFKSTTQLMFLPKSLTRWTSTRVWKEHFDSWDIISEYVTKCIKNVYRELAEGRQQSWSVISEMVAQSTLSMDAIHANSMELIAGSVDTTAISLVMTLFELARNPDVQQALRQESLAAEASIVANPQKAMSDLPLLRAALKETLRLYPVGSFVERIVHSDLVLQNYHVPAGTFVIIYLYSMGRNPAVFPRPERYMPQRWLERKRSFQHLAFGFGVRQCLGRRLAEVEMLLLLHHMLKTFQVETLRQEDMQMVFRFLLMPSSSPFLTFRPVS

[2] = molecular target: T3, CYP21 (steroid 21-hydroxylase) (Homo sapiens, UniProt P08686); experiment: Inhibition of human CYP21 transfected in HEK293 cells assessed as decrease in conversion of progesterone to 11-deoxycorticosterone preincubated for 5 hrs followed by progesterone addition measured after 20 hrs by ELISA; format: cell-based; set-up: concentration or dose not given beside the values; conditions: HEK293 cells transfected with human CYP21, probe progesterone
T3 sequence (P08686 whole entry): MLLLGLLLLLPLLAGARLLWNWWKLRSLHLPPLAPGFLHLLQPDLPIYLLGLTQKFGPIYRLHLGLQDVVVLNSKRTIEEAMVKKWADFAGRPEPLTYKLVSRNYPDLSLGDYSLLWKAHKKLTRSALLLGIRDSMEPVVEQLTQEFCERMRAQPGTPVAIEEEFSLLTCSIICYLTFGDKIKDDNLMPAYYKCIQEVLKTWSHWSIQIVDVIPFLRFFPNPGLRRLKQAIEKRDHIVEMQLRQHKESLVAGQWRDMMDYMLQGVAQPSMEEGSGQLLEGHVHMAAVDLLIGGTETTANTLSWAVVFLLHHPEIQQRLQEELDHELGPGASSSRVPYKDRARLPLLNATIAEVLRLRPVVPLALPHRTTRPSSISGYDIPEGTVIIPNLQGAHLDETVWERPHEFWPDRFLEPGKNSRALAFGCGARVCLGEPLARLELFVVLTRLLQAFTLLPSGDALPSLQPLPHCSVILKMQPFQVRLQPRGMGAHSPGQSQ

[3] = molecular target: T1, Steroid 17-alpha-hydroxylase/17,20 lyase; experiment: Inhibition of CYP17 in human testicular microsomes using 17alpha-hydroxypregnenolone as substrate assessed as decrease in DHEA levels at 10 nM after 90 mins by ELISA relative to control; set-up: species or system Testis; conditions: 1.5 h
[4] = molecular target: T3, CYP21 (steroid 21-hydroxylase); experiment: Inhibition of human CYP21 transfected in HEK293 cells assessed as decrease in conversion of progesterone to 11-deoxycorticosterone at 100 nM preincubated for 5 hrs followed by progesterone addition measured after 20 hrs by ELISA relative to control; format: cell-based; conditions: HEK293 cells transfected with human CYP21, probe progesterone
[5] = molecular target: T1, Steroid 17-alpha-hydroxylase/17,20 lyase; experiment: Inhibition of CYP17 in human H295R cells assessed as decrease in testosterone levels after 24 hrs by ELISA; format: cell-based
[6] = Half life in human liver microsomes at 1 uM by LC-MS/MS analysis
[7] = Half life in rat liver microsomes at 1 uM by LC-MS/MS analysis

With CCC(=O)N1CCC2CC[C@@H]3[C@H](CC[C@]4(C)C(c5cccnc5)=CC[C@@H]34)[C@@]2(C)CC1 (stereo not given in full) the IC50 [1] was no more than 11 nM, the inhibition at 1 h, 0.1 µM (CYP11B) was less than 32% and the inhibition at 20 h [2] was 10 to 50%.

CCCC(=O)N1CCC2CC[C@@H]3[C@H](CC[C@]4(C)C(n5ccnc5)=CC[C@@H]34)[C@@]2(C)CC1 (stereo not given in full) showed an IC50 [1] of no more than 11 nM, an inhibition at 1 h, 0.1 µM (CYP11B) of less than 32% and an inhibition at 20 h [2] of no less than 50%.

Work on CN1CC=C2CC[C@@H]3[C@H](CC[C@]4(C)C(n5ccnc5)=CC[C@@H]34)[C@@]2(C)CC1 yielded an inhibition at 0.01 µM [3] of 1 to 50% and an inhibition at 1 h, 0.1 µM (CYP11B) of less than 32%.

For Cc1cncc(C2=CC=C3[C@@H]4CCC5=CC(=O)N(C)CC[C@]5(C)[C@H]4CC[C@]23C)c1, the inhibition at 0.01 µM [3] was 50 to 80% and the inhibition at 20 h, 0.1 µM [4] was less than 30%.

Cc1ccncc1C1=CCC2[C@@H]3CN(C)C4=CC(=O)CC[C@]4(C)[C@H]3CC[C@]12C (single isomer, unassigned) gave an IC50 [5] of no more than 15 nM, an inhibition at 1 h, 0.1 µM (CYP11B) of no less than 50% and an inhibition at 20 h [2] of 10 to 50%.

In the case of C[C@]12CCCCC1C(=O)C[C@@H]1[C@@H]2CC[C@]2(C)C(n3ccnc3)=CC[C@@H]12 (stereo not given in full), the IC50 [1] is reported as no more than 11 nM, the inhibition at 0.01 µM [3] is reported as no less than 80% and the inhibition at 1 h, 0.1 µM (CYP11B) is reported as less than 32%.

Compound C[C@]12CC[C@H]3[C@@H](CCC4=C/C(=N/O)CC[C@@]43C)C1=CC=C2c1cccnc1 has an IC50 [1] of no more than 11 nM, a half-life at 1 µM [6] of 1 to 50 min and an inhibition at 20 h, 0.1 µM [4] of less than 30%. The inhibition at 20 h [2] was no less than 50%.

With CN1C(=O)CC[C@@]2(C)C1=CC[C@@H]1[C@@H]2CC[C@]2(C)C(n3ccnc3)=CC[C@@H]12 the inhibition at 0.01 µM [3] was 50 to 80% and the inhibition at 1 h, 0.1 µM (CYP11B) was no less than 50%.

Work on COC(=O)N[C@@H]1CC[C@@]2(C)C(=CC[C@@H]3[C@@H]2CC[C@]2(C)C(n4ccnc4)=CC[C@@H]32)C1 yielded an IC50 [1] of no more than 11 nM, an inhibition at 1 h, 0.1 µM (CYP11B) of less than 32% and an inhibition at 20 h [2] of no less than 50%.

In the case of C[C@]12CC[C@@H](NC(=O)C3CC3)CC1=CC[C@@H]1[C@@H]2CC[C@]2(C)C(n3ccnc3)=CC[C@@H]12, the IC50 [1] is reported as no more than 11 nM, the half-life at 1 µM [6] is reported as 1 to 50 min and the inhibition at 1 h, 0.1 µM (CYP11B) is reported as no less than 50%. It also gave an inhibition at 20 h [2] of no less than 50%.

With CN1C(=O)CC[C@@]2(C)C1=CC[C@@H]1[C@@H]2CC[C@]2(C)C(n3cncc3C#N)=CC[C@@H]12 the inhibition at 1 h, 0.1 µM (CYP11B) was less than 32% and the inhibition at 20 h [2] was less than 10%.

Compound CN1CC[C@@]2(C)C(=CC1=O)CC[C@@H]1[C@@H]2CC[C@]2(C)C(n3ccnc3)=CC[C@@H]12 has an IC50 [1] of no more than 11 nM, an inhibition at 0.01 µM [3] of no less than 80% and a half-life at 1 µM [7] of 10 to 60 min. The half-life at 1 µM [6] was 1 to 50 min and the inhibition at 1 h, 0.1 µM (CYP11B) was no less than 50%.

Cc1ccncc1C1=CC[C@H]2[C@@H]3CC[C@H]4CC(=O)NCC[C@]4(C)[C@H]3CC[C@]12C gave an IC50 [5] of no more than 15 nM, an inhibition at 1 h, 0.1 µM (CYP11B) of less than 32% and an inhibition at 20 h [2] of 10 to 50%.

C[C@]12CC[C@H](O)CC1=CC[C@@H]1[C@@H]2CC[C@]2(C)C(c3cccnc3)=CC[C@@H]12 [ABIRATERONE] showed an IC50 [1] of no more than 11 nM, an inhibition at 0.01 µM [3] of no less than 80% and an IC50 [5] of no more than 15 nM. It also gave a half-life at 1 µM [6] of 1 to 50 min, an inhibition at 1 h, 0.1 µM (CYP11B) of less than 32% and an inhibition at 20 h [2] of no less than 50%.
